Data on two compounds can be found in article PMC7948405, “Small-molecule control of neurotransmitter sulfonation” (The Journal of Biological Chemistry, 2020).

Structures are written as SMILES.

This assay addresses T1, SULT1A3 (Homo sapiens, UniProt P0DMM9).
T1 construct: E. coli–optimized SULT coding regions were inserted into a pGEX-6P expression vector; N-His/GST/MBP triple tag (PreScission-cleavable) (N, cleaved yes); made in house; host or cells: E. coli BL21(DE3)
The assay is described as follows: Initial-rate inhibition of SULT-catalyzed 1-HP sulfonation. As to conditions: parentheses 1 SD; for Ki: in vitro initial rate, 1-HP 5.0 μM, PAPS 0.50 mM, pH 7.5, 25 °C; for % Inhibition at saturation: in vitro, saturating inhibitor. The assay is classed as biochemical. Here is the method: Figure 3 Affinity, specificity, and binding sites of CMP12 and CMP13. A and B, inhibition studies. Initial rates of SULT-catalyzed 1-HP sulfonation are plotted as a function of inhibitor concentration. Rates are normalized to the rate observed in the absence of the inhibitor. Inhibition of the major SULT isoforms found in the brain and liver were tested. SULT activity was monitored via the sulfonation-dependent change in 1-HP fluorescence (λex = 325 nm, λem = 375 nm ([15], [28])). Reaction conditions were as follows: SULT (20 nM, active sites), PAPS (0.50 mM, 17 × Km), 1-HP (5.0 μM, 61 × Km), KPO4 (50 mM), pH 7.5, 25(±2) °C. Less than 5% of the concentration-limiting substrate was converted to the product at reaction endpoints. Each data point is the average of three independent determinations. The lines passing through the data are least-squares fits to a noncompetitive partial-inhibition model (see Experiment and Initial rate). C, CMP8 competes with CMP12 and CMP13. Initial rates at saturating CMP12 or CMP13 are plotted as a function of CMP8 concentration. Rates are normalized to the rate observed in the absence of the inhibitor. […] Lines passing through the data are the predictions of a noncompetitive partial-inhibition model in which inhibitors compete for the same site (see Experiment and Binding competition). SULT, sulfotransferase; PAP, 3′-phosphoadenosine-5′-phosphate; SULT1A3, sulfotransferase 1A3; PAPS, 3’-phosphoadenosine 5’-phosphosulfate; 1-HP, 1-hydroxypyrene.
Initial-rate inhibition parameters were obtained from classical initial-rate studies ([16], [28], [43]). Reactions were initiated by addition of PAPS (0.50 mM, 17 × Km) to a solution containing SULT1A3 (20 nM, active sites), inhibitor (0.2–20 × Ki), 1-HP (5.0 μM, 60 × Km), and KPO4 (50 mM), pH 7.5, 25(±2) °C. Reaction progress was monitored via the fluorescence change associated with 1-HP sulfonation (λex = 325 nm, λem = […] ([15], [28])). Less than 5% of the 1-HP was converted to the product at reaction endpoints. Ki and kcat inh (i.e., turnover at saturating inhibitor and substrate) were obtained by fitting to the following quadratic equation for noncompetitive, partial inhibition at [S] >> Km ([44]):(7) v/Vmax=([Etot]+[ESI](α-1))/[Etot] where(8) α=kcat inh/kcat and(9) [ESI]=[([E]tot+[I]tot+Ki)−[([E]tot+[I]tot+Ki)^2−4·[I]tot·[E]tot]^1/2]/2

T1 sequence (P0DMM9 whole entry): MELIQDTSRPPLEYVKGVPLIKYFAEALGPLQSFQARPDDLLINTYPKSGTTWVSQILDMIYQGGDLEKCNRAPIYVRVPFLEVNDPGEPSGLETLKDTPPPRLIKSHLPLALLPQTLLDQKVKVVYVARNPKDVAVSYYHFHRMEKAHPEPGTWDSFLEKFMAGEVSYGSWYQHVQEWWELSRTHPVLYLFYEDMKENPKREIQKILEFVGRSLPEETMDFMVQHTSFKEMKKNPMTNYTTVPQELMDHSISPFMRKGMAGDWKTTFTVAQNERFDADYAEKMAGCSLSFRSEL

Consider `CC(C)Cc1ccc2cc(CCC(N)=O)ccc2n1` [CMP12], for which the Ki came to 70 nM and the “% Inhibition at saturation” value is listed as 83 (4) %.

As for `CC(C)Cc1ccc2cc(/C=C/C(N)=O)cnc2n1` [CMP13], the Ki turned out to be 11 nM and the “% Inhibition at saturation” value was 98 (2) %.

For orientation: Ki means the dissociation constant of the complex between target and ligand, obtained from inhibition or displacement.
